Test results published in patent publication US9271952B2, “Compositions and methods for treating nephropathy” (Complexa, Inc., priority 2011, dated 2016).

Columns and labels:
B6129S2/J mice = test: Cisplatin-induced renal injury in mice, posttreatment with OA-NO2; type: in vivo
Description: The control group also received an i.p. injection of the equivalent amount of ethanol at the same frequencies. At the end of the experiments, under isoflurane anesthesia, blood was withdrawn from the vena cava using 1 cc insulin syringe and kidneys were harvested for analysis of morphology and gene expression.

[1] = system: human proximal tubular cells (HK2); test: Cisplatin-induced caspase activity in cultured human proximal tubular cells (HK2); type: cell-based
[2] = cisplatin-treated mice, OA-NO2 400 mg/kg i.p. at 6-hour intervals for 48 hours
[3] = cisplatin 20 mg/kg i.p. alone, mice

“9- or 10-nitro octadecenoic acid [OA-NO2]” was tested, and the “MPO plasma level (marker of neutrophil infiltration)” value (B6129S2/J mice; [2]) was “attenuated or completely corrected”, the “activity of caspase (index of apoptosis)” value (B6129S2/J mice; [2]) was “attenuated or completely corrected” and the “kidney expression of NADPH oxidase subunits p47phox and gp91phox” value (B6129S2/J mice; [2]) was “attenuated or completely corrected”. The “kidney thiobarbituric acid-reactive substances (TBARS, index of oxidative stress)” value (B6129S2/J mice; [2]) was “attenuated or completely corrected”, the “renal histological abnormalities (distortion of renal morphology, dilation of renal tubules, protein cast; pathological changes)” value (B6129S2/J mice; mice given cisplatin 20 mg/kg i.p., OA-NO2 400 mg/kg i.p. at 6-hour intervals for 48 hours) was “markedly attenuated” and the “renal dysfunction as indicated by a rise in plasma BUN (functional changes)” value (B6129S2/J mice; mice given cisplatin 20 mg/kg i.p., OA-NO2 400 mg/kg i.p. from 20 minutes after, at 6-hour intervals for 48 hours) was “markedly attenuated”. The cisplatin-induced caspase activity ([1]; HK2 cells exposed to 1.0 μM cisplatin, with OA-NO2) was “almost completely normalized”.
With `N.N.[Cl][Pt][Cl]` [cisplatin, reference compound] the activity of caspase (B6129S2/J mice; [3]) was “increased”, the “kidney TBARS” value (B6129S2/J mice; [3]) was “increased” and the “kidney expression of NADPH oxidase subunits p47phox and gp91phox” value (B6129S2/J mice; [3]) was “increased”. For the same compound, the “increase in caspase activity” value ([1]; HK2 cells, exposure to 1.0 μM cisplatin) was 3 fold.
